Assay results from paper PMC6691805 (Journal of Enzyme Inhibition and Medicinal Chemistry, 2019).

Target: T1, 17β-HSD1 (Homo sapiens, UniProt P14061)
T1 sequence (P14061 1-328): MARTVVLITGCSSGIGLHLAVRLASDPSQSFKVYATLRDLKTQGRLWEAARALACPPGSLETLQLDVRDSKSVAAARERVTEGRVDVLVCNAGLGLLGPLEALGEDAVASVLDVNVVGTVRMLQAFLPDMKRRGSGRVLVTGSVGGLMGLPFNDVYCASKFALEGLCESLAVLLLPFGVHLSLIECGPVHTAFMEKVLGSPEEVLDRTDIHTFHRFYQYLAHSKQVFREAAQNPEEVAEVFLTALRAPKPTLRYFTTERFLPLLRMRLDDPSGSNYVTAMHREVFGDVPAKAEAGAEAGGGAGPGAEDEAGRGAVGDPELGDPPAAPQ
Type: biochemical

cofactor preference in terms of RIP values, favouring the NADPH bound enzyme (cofactor preference for NADPH in terms of RIP values): 2–11 fold | 17β-HSD1 inhibitory effect (in words) (evaluation of potentials obtained with NADPH): potent inhibitors
SMILES: COC(=O)CO[C@@H]1CC(=O)[C@@]2(C)CC[C@@H]3c4ccc(OCc5ccccc5)cc4CC[C@H]3[C@H]12 [Compound 22, 3-Benzyloxy-15β-(2’-methoxy-2’-oxoethoxy)-estra-1,3,5(10)-trien-17-one]
